Experiments:
human CYP3A4 = target: T1, human CYP3A4 (Homo sapiens, UniProt P08684); test: Assay of human CYP3A4-inhibitory activity; assay type: biochemical; conditions: testosterone 100 μM, human CYP3A4 10 pmol/ml, 37° C., 30 min; read-out: IC50 (CYP3A4 inhibition, 6β-hydroxytestosterone production)
T1 construct: purchased GENTEST
Procedure: Assay of Human CYP3A4-Inhibitory Activity
Performed as in the following according to Journal of Biological Chemistry, vol. 256, 11937 (1983).
A phosphate buffer solution (50 mM, pH 7.4) containing testosterone (final concentration 100 μM, hereinafter the same), human CYP3A4 (10 pmol/ml, manufactured by GENTEST), NADPH producing system (0.5 mM NADP, 5 mM glucose-6-phosphate, 5 mM magnesium chloride, 1.5 units/ml glucose-6-phosphate dehydrogenase) and the test compound was incubated at 37° C. for 30 min. Acetonitrile was added to the reaction mixture and the mixture was stirred and centrifuged. The 6β-hydroxytestosterone in the obtained supernatant was analyzed by high performance liquid chromatography.

[1] = system: testosterone biosynthesis; test: Assay of inhibitory effect on testosterone biosynthesis in rats; assay type: in vivo; conditions: 25 mg/kg oral, male SD rat, serum testosterone 2 h after administration, relative to control group
Procedure: Assay of Inhibitory Effect on Testosterone Biosynthesis in Rats
The test compound (25 mg/kg) was orally administered to 9-week-old male SD (Sprague Dawley) rat. Blood was taken at 2 h after administration of the compound and the concentration of testosterone in the obtained serum was assayed by radioimmunoassay. The proportion (T/C, %) of testosterone concentration of the test drug administration group relative to the testosterone concentration of the control group was calculated to determine testosterone synthesis-inhibitory activity.

steroid C17,20-lyase = target: T2, steroid C17,20-lyase (Rattus norvegicus, UniProt P11715); test: Assay of steroid C17,20-lyase-inhibitory activity in rat (testis microsome); assay type: biochemical; conditions: male SD rat orchis microsome, 10 nM [1.2-3H]-17α-hydroxyprogesterone, 37° C., 7 min; read-out: IC50 (steroid C17,20-lyase inhibition)
T2 construct: The orchis was homogenized and centrifuged to prepare a microsome; from tissue; host or cells: testis (orchis) microsomes of 13-week-old male SD rat
T2 sequence (P11715 1-507): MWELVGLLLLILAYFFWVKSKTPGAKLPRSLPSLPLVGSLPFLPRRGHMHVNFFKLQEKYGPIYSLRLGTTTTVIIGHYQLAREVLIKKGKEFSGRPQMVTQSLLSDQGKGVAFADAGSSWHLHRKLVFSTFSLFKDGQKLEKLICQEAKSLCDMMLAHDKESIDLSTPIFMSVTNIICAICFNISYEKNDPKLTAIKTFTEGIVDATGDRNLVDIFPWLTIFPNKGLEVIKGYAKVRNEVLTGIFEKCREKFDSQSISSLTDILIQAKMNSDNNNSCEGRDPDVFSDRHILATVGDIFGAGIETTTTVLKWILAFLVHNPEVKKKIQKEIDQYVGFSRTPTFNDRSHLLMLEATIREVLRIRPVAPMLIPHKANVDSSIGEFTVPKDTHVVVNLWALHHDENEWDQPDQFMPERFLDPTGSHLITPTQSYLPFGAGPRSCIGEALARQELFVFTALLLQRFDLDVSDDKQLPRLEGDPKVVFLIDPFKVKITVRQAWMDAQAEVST
Procedure: Assay of steroid C17,20-Lyase-Inhibitory Activity in Rat
The assay was performed according to The Prostate, Vol. 26, 140–150 (1995).
The orchis was removed from 13-week-old male SD rat. The orchis was homogenized and centrifuged to prepare a microsome. The [1.2-^3H]-17α-hydroxyprogesterone having a final concentration of 10 nM, NADPH solution and the test compound were dissolved in a 100 mM phosphate buffer solution (10 μl, pH 7.4). Microsome protein (7 μg/10 μl) was added and the mixture was incubated at 37° C. for 7 min. Ethyl acetate (40 μl) was added and the mixture was centrifuged, and the substrate and the product (androstenedione and testosterone) in the supernatant were separated by a silica gel thin layer chromatography (TLC). The spot was detected and quantitatively assayed by a BAS 2000 bioimage analyzer.

T1 sequence (P08684 whole entry): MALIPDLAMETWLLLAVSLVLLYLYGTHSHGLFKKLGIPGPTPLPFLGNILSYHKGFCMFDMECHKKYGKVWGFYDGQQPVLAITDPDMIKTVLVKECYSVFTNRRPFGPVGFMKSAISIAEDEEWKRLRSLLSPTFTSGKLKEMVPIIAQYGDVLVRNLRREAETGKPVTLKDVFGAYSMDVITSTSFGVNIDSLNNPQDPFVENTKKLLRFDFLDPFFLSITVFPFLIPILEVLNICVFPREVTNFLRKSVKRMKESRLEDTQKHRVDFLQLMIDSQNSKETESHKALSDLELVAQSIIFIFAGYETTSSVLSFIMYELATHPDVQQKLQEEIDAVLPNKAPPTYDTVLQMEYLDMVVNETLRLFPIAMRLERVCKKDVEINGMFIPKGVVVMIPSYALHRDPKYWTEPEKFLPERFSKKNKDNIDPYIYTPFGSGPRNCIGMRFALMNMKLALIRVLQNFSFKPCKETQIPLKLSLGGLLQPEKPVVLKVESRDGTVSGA

SMILES | IC50 (human CYP3A4) | inhibitory effect on testosterone biosynthesis (T/C, %) [1] | IC50 (steroid C17,20-lyase)
OC1(c2cccc(-c3ccc(F)cc3)c2)CCn2cncc21 (stereo not shown) [Example 3, 7-(4′-fluoro[1,1′-biphenyl]-3-yl)-6,7-dihydro-5H-pyrrolo[1,2-c]imidazol-7-ol] | 9600 nM | 4.4% | 10 nM
CNC(=O)c1ccc2cc(C3(O)CCn4cncc43)ccc2c1 (single isomer, unassigned; (+)) [Example 11, (+)-6-(7-hydroxy-6,7-dihydro-5H-pyrrolo[1,2-c]imidazol-7-yl)-N-methyl-2-naphthamide] |  |  | 48 nM
OC1(c2ccc(-c3ccc(F)cc3)cc2)CCn2cncc21 (stereo not shown) [Example 4, 7-(4′-fluoro[1,1′-biphenyl]-4-yl)-6,7-dihydro-5H-pyrrolo[1,2-c]imidazol-7-ol] | > 10000 nM |  | 25 nM
CNC(=O)c1ccc2cc(C3(O)CCn4cncc43)ccc2c1 (stereo not shown) [Example 5, 6-(7-hydroxy-6,7-dihydro-5H-pyrrolo[1,2-c]imidazol-7-yl)-N-methyl-2-naphthamide] |  |  | 54 nM

— patent US7141598B2, “Imidazole derivatives, production method thereof and use thereof” (Takeda Pharmaceutical Company, Ltd., priority 2000, dated 2006)
